Data on four molecules can be found in patent US20090130165A1, “MIF Inhibitors” (Cortical Pty Ltd, priority 2005, published 2009).

Read-outs that look alike come from different tables or passages of the source.

Data set [1] concerns IL-1 induced COX-2 expression in S112 human dermal fibroblasts. The data set can be described thus: Inhibition of interleukin-1 induction of cyclooxygenase-2 expression in S112 human dermal fibroblasts. The note with it: S112 cells, up to 100 μM compound, IL-1 0.1 ng/ml, 6 hours (FIG. 2). The data set is classed as cell-based. The source says:
The activity of compounds was studied in a bioassay for MIF-dependent cytokine effects of human S112 dermal fibroblasts. In these cells the induction of the expression of cyclooxygenase-2 (COX-2) protein by interleukin 1 (IL-1) is dependent upon the presence of endogenous MIF^(13). The expression of COX2 proteins is therefore sensitive to depiction of endogenous MIF by neutralizing antibody, gene knockout of targeting with small molecule inhibitors. A compound with the ability to inhibit the biological activity of MIF would therefore inhibit die activation of COX2 expression hi response to IL-1.
S112 human dermal fibroblasts were propagated in RPMI/10% foetal calf serum (FCS). Prior to experimentation, cells were seeded at 10^5 cells/ml in RPMI/0.1% BSA for 18 hours. Cells were treated with recombinant human IL-1 (0.1 ng/ml) and with each compound at concentrations ranging up to 100 μM. A control was treated only with recombinant human TL-1 (0.1 ng/ml) and vehicle (DMSO). After 6 hours, cells were collected and intracellular COX-2 protein determined by permeabilisation flow cytometry. […] Cellular fluorescence was determined using a flow cytometer. At least 5000 events were counted for each reading, each of which was performed in duplicate, and the results expressed in mean fluorescence intensity (MFI) after subtraction of negative control-labelled cell fluorescence.

Data set [2] deals with C57Bl/6j mice. The data set can be described thus: In vivo assay of MIF antagonism: murine endotoxic shock model, serum TNF. The arrangement: species or system mouse. The note with it: intra-peritoneal, 10, 1 and 0.1 mg/kg at 24 hours and 1 hour before LPS 1 mg/kg (FIG. 3). On the procedure: The activities of compounds were studied in the murine endotoxic shock model. This model has been previously shown to be dependent on MIF^(14). Administration of a compound which inhibits the cytokine activity of MIF would be expected to result hi a reduction in serum level s of the pro-inflammatory cytokine TNF.
Endotoxaemia was induced by intra-peritoneal Injection of C57Bl/6j mice with lipopolysaccharide (LPS) (1 mg/kg) in 200 μl saline. Animals were treated with either a saline solution (control) only, or LPS with vehicle or compounds B1 and A3 in vehicle at doses of 10, 1 and 0.1 mg/kg body weight, administered by intra-peritoncal injection at 24 hours and 1 hour before intra-peritoneal LPS injection. After 1 hour mice were humanely killed by CO2 inhalation then neck dislocation. Serum was obtained from blood obtained by cardiac puncture prior to death and measured for TNF levels by ELISA according to the manufacturer's instructions.

Data set [3] deals with T1, immobilized recombinant MIF protein (Homo sapiens, UniProt P14174).
T1 sequence (P14174 2-115 limits assumed): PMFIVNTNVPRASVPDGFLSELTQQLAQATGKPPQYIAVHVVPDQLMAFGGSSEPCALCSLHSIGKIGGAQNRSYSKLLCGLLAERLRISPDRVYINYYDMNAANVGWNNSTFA
Put plainly: Interaction of compounds with MIF protein by Surface Plasmon Resonance (Biacore S51). Format: binding. The note with it: SPR; for Kd / kon / Kinetics Method Kd (10^−3 s^−1): immobilized MIF; for equilibrium dissociation constant (KD) values, in words: immobilized recombinant MIF; for kon: association rate, read-out: Kinetics Method Ka (10^3 M^−1s^−1); for Kinetics Method Kd (10^−3 s^−1): dissociation rate. On the procedure: The interaction of compounds with MIF protein was characterized by Surface Plasmon Resonance (SPR) analysis using an S51 (Biacore International AB) automated small molecule biosensor assay system. Recombinant MIF protein was immobilized on a carboxymethyl dextran biosensor chip using amine coupling chemistry. Compound binding to the immobilized MIF protein was measured at 11 concentrations up to 100 uM (in duplicate), with corrections for the DMSO used as a solvent at a final concentration of 5%. The change in SPR output relative to that of a control underivatized reference spot was recorded over time. The affinity and stoichiometry of interaction was calculated using steady state and/or kinetics evaluation methods with software supplied by the manufacturer.
On the technique in general: Surface plasmon resonance follows binding to a sensor surface in real time, without labels.

The subject of data set [4] is LPS-induced IL-6 production in RAW264.7 mouse macrophage cell line. Put plainly: Inhibition of LPS-induced production of IL-6 in RAW264.7 macrophages. The data set is classed as cell-based. As to conditions: 50 uM compound, 100 ng/ml LPS 4 hr, RAW264.7 cells, relative to LPS+DMSO control. Here is the method: MIF is an important factor in the innate immune response to toxins such as the bacterial endotoxin lipopolysaccharide (LPS). […] A compound with the ability to inhibit the biological activity of MIF would therefore inhibit the activation of cytokine production by macrophages in response to LPS. The RAW264.7 mouse macrophage cell line was propagated in DMEM/10% foetal calf serum (FCS) at 37° C. in 5% CO2. 24 hr prior to assay cells were seeded in 96-well tissue culture plates. Cells were allowed to adhere for 4 hr prior to transfer to DMEM/0.5% FCS for 18 hr. Cells were then treated with 50 uM compound in DMSO for 30 min prior to stimulation for 4 hr with 100 ng/ml LPS. Cell culture supernatants were then collected from each well and assayed for IL-6 levels by ELISA (R&D Systems) according to the manufacturer's instructions.

Data set [5] is described as follows: Lower limits of aqueous solubility by nephelometry. Format: physicochemical. The note with it: phosphate-buffered saline with 0.005% (v/v) P20 and 5% DMSO, aqueous with cosolvent or surfactant or cyclodextrin, kinetic from dmso stock, 0.005% (v/v) P20, 5% DMSO, read-out: Solubility Lower Limit Range. Here is the method: Lower limits of aqueous compound solubility were determined in a nepholometer in phosphate-buffered saline containing 0.005% (v/v) P20 and a final concentration of 5% DMSO. Briefly, compounds were initially dissolved in DMSO as a 10 mM stock solution and diluted to 1 mM and 0.5 mM working solutions with neat DMSO. The compounds were then titrated in DMSO and a constant volume of DMSO stock added to filtered PBS/P20 solution so that the final DMSO concentration was 5%. The solubility was then determined in clear, flat-bottom 96-well plates using the nephelometer and reported as the concentration range at which the compound begins to precipitate from solution.

Data set [6] addresses T2, Recombinant human MIF protein (Homo sapiens, UniProt P14174).
T2 sequence (P14174 2-115 limits assumed): T1 sequence (P14174 2-115 limits assumed)
The data set can be described thus: Inhibition of MIF tautisomerase activity (L-dopachrome). The data set is classed as biochemical. The note with it: mean±standard deviation of 2-4 experiments. Here is the method: MIF protein has the ability in vitro to catalyze the tautisomerization of dopachrome^(15).
Recombinant human MIF protein was pre-incubated with compounds as indicated prior to the addition of L-dopachrome substrate. Tautomerase activity was determined by measurement of die decrease in absorbance at 475 nm after 2 min. […]

Data set [7] concerns LPS-induced IL-6 production in RAW264.7 mouse macrophage cell line. Put plainly: Inhibition of LPS-induced production of IL-6 in RAW264.7 macrophages. The data set is classed as cell-based. The note with it: RAW264.7 cells, up to 100 μM compound (FIG. 1).
In data set [8] the test system is mice. The data set can be described thus: Delayed-type hypersensitivity reaction to mBSA, footpad swelling. Format: in vivo, mouse. The note with it: 5 and 15 mg/kg/24 h IP, twice daily for 7 days prior to mBSA challenge and further 24 h (FIG. 4). The source says: Delayed-type hypersensitivity reactions, which are initiated by T lymphocyte responses to recall antigens and mediated by many cell types including macrophages, are known to be dependent on the cytokine or biological activity of MIF^(16,17). For example, an anti-MIF monoclonal antibody suppresses delayed-type hypersensitivity reactions in vivo to methylated bovine scrum albumin (mBSA) injected into the skin of animals preimmunised with mBSA^(16). A compound inhibiting die cytokine or biological function of MIF might be expected to inhibit delayed-type hypersensitivity reactions in vivo.
Mice were immunised on day 0 with 200 μg of methylated BSA (mBSA; Sigma Chemical Co., Castle Hill, Australia) emulsified in 0.2 ml of Freund's complete adjuvant (CFA; Sigma) injected subcutaneously in the flank skin. At day 7, mice were given 100 μg mBSA in 0.1 ml CFA by intradermal injection at the base of the tail. […] Mice were killed 24 h later and footpad swelling quantified using micro calipers (Mitutoyo, Kawasaki-shi, Japan). […] Results were expressed as the difference in footpad swelling between mBSA and saline-injected footpads, and expressed as change in footpad thickness (mm). […] Treatment with compound 13 continued for a further 24 h and changes in footpad thickness relative to control paws were measured at that time.

In data set [9] the test system is Recombinant human MIF-induced leukocyte-endothelial cell adhesion in mice. Put plainly: rhMIF-induced leukocyte adhesion, intravital microscopy of cremaster muscle. The data set is classed as in vivo, mouse. The note with it: 30 mg/kg intraperitoneal 10 minutes prior to intrascrotal MIF, 4 hours (FIG. 5). The source says:
As will be known to those skilled in the art, the adherence of leukocytes to the endothelium in vivo can be studied using the technique of intravital microscopy^(18,19). As MIF induces leukocyte adherence to vascular endothelium as measured using intravital microscopy, a compound inhibiting the Cytokine or biological activity of MIF might be expected to inhibit the effects of MIF observable using intravital microscopy.
Mice were anesthetised with ketamine/xylazine, and the cremaster muscle was exteriorized onto an optically-clear viewing pedestal. The cremasteric microcirculation was visualized using an intravital microscope (Axioplan 2 Imaging; Carl Zeiss, Australia) with a 20× objective lens (LD Achroplan 20×/0.40 NA, Carl Zeiss, Australia) and a 10× eyepiece. Three-five postcapillary venules (25-40 μm in diameter) were examined for each experiment. Images were visualized using a video camera and recorded on video-tape for subsequent playback analysis. Recombinant human MIF ([…]) was injected intrascrotally in 150 μL saline, prior to intravital microscopy 4 hours later. Leukocyte-endothelial cell adhesion, was assessed as described by Gregory et al^(19). Compound 13 at a dose of 30 mg/kg or vehicle were administered by intraperitoneal injection 10 minutes prior to intrascrotal injection of MIF.

The mark [10] stands for this setting: steady state evaluation, 5% DMSO, read-out: Steady State Method (equilibrium dissociation constant KD).
Where [11] appears, read: kinetics evaluation, read-out: Kinetics Method Kd.

On to `O=C(O)CCSCC(=O)c1ccc2c(c1)CC(=O)N2` [Compound 2], for which, in data set [1], the “inhibition of IL-1 induced COX-2 expression, in words” value is given as “dose-dependent inhibition”. The “suppression of LPS-induced serum TNF levels, in words” value (shortened to “suppression”) in data set [2] is reported as “significant dose-dependent suppression”.
`O=C(O)CCSCC(=O)c1ccc2[nH]c(=O)[nH]c2c1` [Compound 4, 3-((2-oxo-2-(2-oxo-2,3-dihydro-1H-benzimidazol-5-yl)ethyl)thio)propanoic acid]: the dissociation constant Kd in data set [3] (setting [10]) is 5.1 µM. The “equilibrium dissociation constant (KD) values, in words” value (from here on “equilibrium dissociation constant”) in data set [3] is given as “low micromolar range”. In data set [4], this molecule returned an inhibition at 50 µM of 5 ± 49%. The “suppression” value in [2] was “significant dose-dependent suppression”. In addition, in [5], the solubility is over 140 µg/mL.
In the case of `CCCCSCC(=O)c1ccc2[nH]c(=O)sc2c1` [Compound 19, 6-((Butylthio)acetyl)-1,3-benzothiazol-2(3H)-one], the kon in [3] is 2200 ± 1000 M⁻¹ s⁻¹. The “Kinetics Method Kd (10^−3 s^−1)” value in data set [3] was 6.2 ± 1.2 10^−3 s^−1. The figures for the Kd in data set [3] (setting [11]) and in [3] (setting [10]) were 3.6 ± 1 µM and 27 ± 2.3 µM, respectively. In data set [3], the “equilibrium dissociation constant” value is “low micromolar range”. Also, the inhibition at 50 µM in [4] turned out to be 82 ± 13%; in data set [6] (50 uM compound), 9 ± 4%. The “suppression” value in [2] is on record as “significant dose-dependent suppression”. Moreover, the inhibition at 100 µM in [6] (100 uM compound) was 17 ± 8%. In data set [7] (Mus musculus), this molecule yielded a concentration for half-maximal inhibition (IC50) of 20 µM. For the same molecule, the “inhibition of LPS-induced IL-6 production, in words” value in [7] is “dose-dependent inhibition”.
On to `O=C(O)CCSCC(=O)c1cc2c(cc1Cl)NC(=O)C2` [Compound 13, 3-((2-(6-chloro-2-oxo-2,3-dihydro-1H-indol-5-yl)-2-oxoethyl)thio)propanoic acid], for which, in [3], the kon amounted to 600 ± 200 M⁻¹ s⁻¹; the “Kinetics Method Kd (10^−3 s^−1)” value is on record as 1.3 ± 0.3 10^−3 s^−1; the “equilibrium dissociation constant” value is reported as “low micromolar range”. In addition, the Kd in [3] (setting [11]) stood at 2.5 ± 1.2 µM. Besides, in data set [3] (setting [10]), the Kd stood at 10 ± 1.4 µM. In [4], this molecule displayed an inhibition at 50 µM of 32 ± 30%. Moreover, the “suppression” value in data set [2] is on record as “significant dose-dependent suppression”. The “inhibition of DTH reactions (change in footpad thickness), in words” value in data set [8] is reported as “significant inhibition”. Further, in [9], the “reduction of MIF-induced leukocyte adhesion” value was “approximately 50%”.

In general, Kd refers to the free concentration of one partner at which half of the binding sites on the other are occupied at equilibrium, for simple one-to-one binding. For orientation: inhibition means the drop in the measured response relative to a control, in per cent. By solubility is commonly meant how much of the substance goes into solution per volume. Broadly, the IC50 is the concentration that gives 50% inhibition. Lower therefore signals greater potency in that assay.
